Test results: US20030012820A1, “Compressible guaifenesin compositions, method for making same and method for making compressed guaifenesin dosage forms therefrom” (priority 2001, published 2003)

Columns and labels:
[1] = Bulk density, VanKel cylinder; type: physicochemical
Procedure: (§1) The particle size distribution, bulk density, moisture content and flow properties were measured for each of the compositions of Examples 1-10 and for Comparison Examples C1-C4. Comparison Examples C1-C4 were commercially available directly compressible guaifenesin compositions. Particle size distribution was measured by sieve analysis using screens of the indicated mesh sizes. Bulk density was measured using a VanKel cylinder. Moisture content was measured by Karl Fischer titration. Flow properties were measured using a VanKel flowmeter with a strip chart recorder. […] Results are given below in TABLES 1A, 1B and 1C

[2] = Particle size distribution by sieve analysis; type: physicochemical
From the text: USP grade guaifenesin powders GP-A, GP-B, GP-C and GP-D having the respective particle size distributions set forth below, were used in the examples. Guaifenesin powder GP-A was made by Rhodia Inc., guaifenesin powders GP-B, GP-C and GP-D were obtained from other commercial sources. In the tables below, the result “% R” for a sample means the amount of sample retained on the corresponding screen size set forth in the table, expressed as a percent by weight of the total sample amount, and the result “% CR” for a sample means the cumulative amount of the sample retained on all screen sizes larger than the corresponding screen size, expressed as a percent by weight of the total sample amount.
as §1

## COc1ccccc1OCC(O)CO (single isomer, unassigned) [GP-B, guaifenesin]
[1]
  Bulk Density: 0.41 g/cc
[2]; US Mesh 20 (850 μm)
  % CR (cumulative amount retained): 0%
  % R (amount retained on screen): 0%
[2]; US Mesh 40 (425 μm)
  % CR (cumulative amount retained): 0.4%
  % R (amount retained on screen): 0.4%
[2]; US Mesh 60 (250 μm)
  % CR (cumulative amount retained): 0.4%
  % R (amount retained on screen): 0%
[2]; US Mesh 80 (180 μm)
  % CR (cumulative amount retained): 2.4%
  % R (amount retained on screen): 2.0%
[2]; US Mesh 100 (150 μm)
  % CR (cumulative amount retained): 3.2%
  % R (amount retained on screen): 0.8%
[2]; US Mesh 200 (75 μm)
  % CR (cumulative amount retained): 11.2%
  % R (amount retained on screen): 8.0%
[2]; US Mesh 325 (45 μm)
  % CR (cumulative amount retained): 58.0%
  % R (amount retained on screen): 46.8%
[2]; pan (<45 μm)
  % CR (cumulative amount retained): 100%
  % R (amount retained): 42.0%

## COc1ccccc1OCC(O)CO (single isomer, unassigned) [GP-C, guaifenesin]
[1]
  Bulk Density: 0.35 g/cc
[2]; US Mesh 20 (850 μm)
  % CR (cumulative amount retained): 0%
  % R (amount retained on screen): 0%
[2]; US Mesh 40 (425 μm)
  % CR (cumulative amount retained): 2.0%
  % R (amount retained on screen): 2.0%
[2]; US Mesh 60 (250 μm)
  % CR (cumulative amount retained): 3.2%
  % R (amount retained on screen): 1.2%
[2]; US Mesh 80 (180 μm)
  % CR (cumulative amount retained): 3.2%
  % R (amount retained on screen): 0%
[2]; US Mesh 100 (150 μm)
  % CR (cumulative amount retained): 4.0%
  % R (amount retained on screen): 0.8%
[2]; US Mesh 200 (75 μm)
  % CR (cumulative amount retained): 11.2%
  % R (amount retained on screen): 7.2%
[2]; US Mesh 325 (45 μm)
  % CR (cumulative amount retained): 77.6%
  % R (amount retained on screen): 66.4%
[2]; pan (<45 μm)
  % CR (cumulative amount retained): 100%
  % R (amount retained): 22.4%

## COc1ccccc1OCC(O)CO (single isomer, unassigned) [GP-A, guaifenesin]
[1]
  Bulk Density: 0.45 g/cc
[2]; US Mesh 20 (850 μm)
  % CR (cumulative amount retained): 0%
  % R (amount retained on screen): 0%
[2]; US Mesh 40 (425 μm)
  % CR (cumulative amount retained): 0%
  % R (amount retained on screen): 0%
[2]; US Mesh 60 (250 μm)
  % CR (cumulative amount retained): 0.8%
  % R (amount retained on screen): 0.8%
[2]; US Mesh 80 (180 μm)
  % CR (cumulative amount retained): 3.2%
  % R (amount retained on screen): 2.4%
[2]; US Mesh 100 (150 μm)
  % CR (cumulative amount retained): 7.6%
  % R (amount retained on screen): 4.4%
[2]; US Mesh 200 (75 μm)
  % CR (cumulative amount retained): 38.4%
  % R (amount retained on screen): 30.8%
[2]; US Mesh 325 (45 μm)
  % CR (cumulative amount retained): 76.8%
  % R (amount retained on screen): 38.4%
[2]; pan (<45 μm)
  % CR (cumulative amount retained): 100%
  % R (amount retained): 23.2%

## COc1ccccc1OCC(O)CO (single isomer, unassigned) [GP-D, guaifenesin]
[1]
  Bulk Density: 0.40 g/cc
[2]; US Mesh 20 (850 μm)
  % CR (cumulative amount retained): 0%
  % R (amount retained on screen): 0%
[2]; US Mesh 40 (425 μm)
  % CR (cumulative amount retained): 0%
  % R (amount retained on screen): 0%
[2]; US Mesh 60 (250 μm)
  % CR (cumulative amount retained): 0%
  % R (amount retained on screen): 0%
[2]; US Mesh 80 (180 μm)
  % CR (cumulative amount retained): 3.2%
  % R (amount retained on screen): 3.2%
[2]; US Mesh 100 (150 μm)
  % CR (cumulative amount retained): 9.6%
  % R (amount retained on screen): 6.4%
[2]; US Mesh 200 (75 μm)
  % CR (cumulative amount retained): 60.0%
  % R (amount retained on screen): 50.4%
[2]; US Mesh 325 (45 μm)
  % CR (cumulative amount retained): 89.6%
  % R (amount retained on screen): 29.6%
[2]; pan (<45 μm)
  % CR (cumulative amount retained): 100%
  % R (amount retained): 10.4%
